In the NIST ThermoML archive (doi:10.1021/je400140n):
Numbers after ± are expanded uncertainties.

Assay: molar heat capacity at constant pressure
Conditions: 101.33 kPa, Liquid, Small sample (50 mg) DSC

Row | SMILES | molar heat capacity at constant pressure (296.2 K) [J/K/mol] | molar heat capacity at constant pressure (300.2 K) [J/K/mol] | molar heat capacity at constant pressure (304.2 K) [J/K/mol] | molar heat capacity at constant pressure (308.2 K) [J/K/mol] | molar heat capacity at constant pressure (312.2 K) [J/K/mol] | molar heat capacity at constant pressure (316.2 K) [J/K/mol] | molar heat capacity at constant pressure (320.2 K) [J/K/mol] | molar heat capacity at constant pressure (324.2 K) [J/K/mol] | molar heat capacity at constant pressure (328.2 K) [J/K/mol] | molar heat capacity at constant pressure (332.2 K) [J/K/mol] | molar heat capacity at constant pressure (336.2 K) [J/K/mol] | molar heat capacity at constant pressure (340.2 K) [J/K/mol] | molar heat capacity at constant pressure (344.2 K) [J/K/mol] | molar heat capacity at constant pressure (348.2 K) [J/K/mol] | molar heat capacity at constant pressure (352.2 K) [J/K/mol] | molar heat capacity at constant pressure (356.2 K) [J/K/mol] | molar heat capacity at constant pressure (360.2 K) [J/K/mol] | molar heat capacity at constant pressure (364.2 K) [J/K/mol] | molar heat capacity at constant pressure (368.2 K) [J/K/mol] | molar heat capacity at constant pressure (372.2 K) [J/K/mol]
1 | CCCCn1cc[n+](C)c1.N#CN=C=[N-] [1-butyl-3-methylimidazolium dicyanamide] | 359.41 ± 58 | 361.87 ± 58 | 363.1 ± 58 | 364.34 ± 58 | 365.98 ± 59 | 367.21 ± 59 | 368.65 ± 59 | 370.08 ± 60 | 372.14 ± 60 | 374.39 ± 60 | 377.47 ± 61 | 380.35 ± 61 | 383.63 ± 62 | 386.71 ± 62 | 390.4 ± 63 | 394.51 ± 63 | 398.82 ± 64 | 403.34 ± 65 | 408.26 ± 65 | 413.6 ± 67
2 | CCCCn1cc[n+](C)c1.N#C[S-] [1-butyl-3-methylimidazolium thiocyanate] | 319.63 ± 51 | 319.63 ± 51 | 320.22 ± 51 | 321.21 ± 51 | 322.98 ± 52 | 324.36 ± 52 | 325.55 ± 52 | 326.93 ± 52 | 329.1 ± 53 | 331.27 ± 53 | 333.64 ± 54 | 336 ± 54 | 338.57 ± 54 | 341.13 ± 55 | 344.29 ± 55 | 347.05 ± 56 | 350.21 ± 56 | 353.37 ± 57 | 356.72 ± 57 | 360.27 ± 58
3 | CCn1cc[n+](C)c1.N#C[S-] [1-ethyl-3-methylimidazolium thiocyanate] | 284.51 ± 46 | 284.17 ± 46 | 285.18 ± 46 | 286.2 ± 46 | 287.89 ± 46 | 289.25 ± 47 | 290.6 ± 47 | 292.12 ± 47 | 293.98 ± 47 | 296.18 ± 48 | 298.22 ± 48 | 300.59 ± 48 | 303.12 ± 49 | 305.49 ± 49 | 308.2 ± 49 | 310.91 ± 50 | 313.96 ± 50 | 317.17 ± 51 | 320.05 ± 51 | 323.43 ± 52
